Test results as given in the supplement of paper PMC10307832.

What was measured:
Assay in all cases: relative viability (nuclei count vs DMSO), 5 days (fraction); higher = more cells survive
A549 = test system: A549
Method in brief: (§1)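 Nuclei were stained with Hoechst during a one-step fixation (final 0.05% Triton X-100, 1% formaldehyde, 1 ug/ml Hoechst) carried out 5 days after dosing, then counted on 4× images. The cells, lung cancer lines in 1536-well plates, had been dosed by pin tool the day after seeding with one drug alone or a fixed anchor-drug dose plus five library-drug doses (not always all listed) in √10 steps. Relative viability is the nuclei count in treated wells divided by that in vehicle wells, and each value is the median of duplicate plates.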

Calu-6 = test system: Calu-6
Method in brief: as §1

EBC-1 = test system: EBC-1
Method in brief: as §1

IA-LM = test system: IA-LM
Method in brief: as §1

NCI-H1299 = test system: NCI-H1299
Method in brief: as §1

NCI-H1703 = test system: NCI-H1703
Method in brief: as §1

NCI-H1563 = test system: NCI-H1563
Method in brief: as §1

With `Cc1cnc(-c2cnc(NCCNc3ccc(C#N)cn3)nc2-c2ccc(Cl)cc2Cl)[nH]1` + CC1(C)CCC(c2ccc(Cl)cc2)=C(CN2CCN(c3ccc(C(=O)NS(=O)(=O)c4ccc(N[C@H](CCN5CCOCC5)CSc5ccccc5)c(S(=O)(=O)C(F)(F)F)c4)cc3)CC2)C1 [Navitoclax] (partner 0.5 µM) as the compound, how does the relative viability (A549; first compound 0.08 µM) read?
Its relative viability is 1.23.

And the relative viability (A549; first compound 0.253 µM)?
Its relative viability is 1.18.

And the relative viability (A549; first compound 0.8 µM)?
The relative viability was 1.21.

And the relative viability (A549; first compound 2.53 µM)?
The relative viability was 1.18.

And the relative viability (Calu-6; first compound 0.08 µM)?
Its relative viability is 0.826.

What about the relative viability (Calu-6; first compound 0.253 µM) of the same compound?
Its relative viability is 0.773.

What about the relative viability (Calu-6; first compound 0.8 µM) of the same compound?
The relative viability was 0.789.

What about the relative viability (Calu-6; first compound 2.53 µM) of the same compound?
The relative viability was 0.717.

And the relative viability (EBC-1; first compound 0.08 µM)?
Its relative viability is 0.399.

And the relative viability (EBC-1; first compound 0.253 µM)?
Its relative viability is 0.351.

What about the relative viability (EBC-1; first compound 0.8 µM) of the same compound?
Its relative viability is 0.542.

And the relative viability (EBC-1; first compound 2.53 µM)?
The relative viability was 0.23.

And the relative viability (IA-LM; first compound 0.08 µM)?
The relative viability was 0.78.

And the relative viability (IA-LM; first compound 0.253 µM)?
The relative viability was 0.71.

And the relative viability (IA-LM; first compound 0.8 µM)?
The relative viability was 0.809.

And the relative viability (IA-LM; first compound 2.53 µM)?
Its relative viability is 0.695.

What about the relative viability (NCI-H1299; first compound 0.08 µM) of the same compound?
Its relative viability is 1.04.

What about the relative viability (NCI-H1299; first compound 0.253 µM) of the same compound?
The relative viability was 1.02.

And the relative viability (NCI-H1299; first compound 0.8 µM)?
Its relative viability is 1.09.

What about the relative viability (NCI-H1299; first compound 2.53 µM) of the same compound?
The relative viability was 1.04.

And the relative viability (NCI-H1703; first compound 0.08 µM)?
The relative viability was 1.15.

What about the relative viability (NCI-H1703; first compound 0.253 µM) of the same compound?
The relative viability was 1.03.

And the relative viability (NCI-H1703; first compound 0.8 µM)?
Its relative viability is 1.2.

And the relative viability (NCI-H1703; first compound 2.53 µM)?
The relative viability was 1.08.

Which results are given for `O=C(O)CCCCC(CCSCc1ccccc1)SCc1ccccc1` (stereo not given) [CPI-613] + CS(=O)(=O)CCNCc1ccc(-c2ccc3ncnc(Nc4ccc(OCc5cccc(F)c5)c(Cl)c4)c3c2)o1 [Lapatinib] (partner 2 µM)?
relative viability (A549; first compound 5 µM): 0.933; relative viability (A549; first compound 15.81 µM): 0.967; relative viability (A549; first compound 50 µM): 0.787; relative viability (A549; first compound 158.11 µM): 0.348; relative viability (A549; first compound 500 µM): 0.249; relative viability (Calu-6; first compound 5 µM): 1.04; relative viability (Calu-6; first compound 15.81 µM): 1.03; relative viability (Calu-6; first compound 50 µM): 0.866; relative viability (Calu-6; first compound 158.11 µM): 0.775; relative viability (Calu-6; first compound 500 µM): 0.563; relative viability (EBC-1; first compound 5 µM): 0.252; relative viability (EBC-1; first compound 15.81 µM): 0.213; relative viability (EBC-1; first compound 50 µM): 0.212; relative viability (EBC-1; first compound 158.11 µM): 0.175; relative viability (EBC-1; first compound 500 µM): 0.145; relative viability (IA-LM; first compound 5 µM): 0.694; relative viability (IA-LM; first compound 15.81 µM): 0.802; relative viability (IA-LM; first compound 50 µM): 0.665; relative viability (IA-LM; first compound 158.11 µM): 0.269; relative viability (IA-LM; first compound 500 µM): 0.208; relative viability (NCI-H1299; first compound 5 µM): 0.923; relative viability (NCI-H1299; first compound 15.81 µM): 0.945; relative viability (NCI-H1299; first compound 50 µM): 0.965; relative viability (NCI-H1299; first compound 158.11 µM): 0.899; relative viability (NCI-H1299; first compound 500 µM): 0.888; relative viability (NCI-H1563; first compound 5 µM): 1; relative viability (NCI-H1563; first compound 15.81 µM): 0.886; relative viability (NCI-H1563; first compound 50 µM): 0.998; relative viability (NCI-H1563; first compound 158.11 µM): 0.427; relative viability (NCI-H1563; first compound 500 µM): 0.103; relative viability (NCI-H1703; first compound 5 µM): 0.943; relative viability (NCI-H1703; first compound 15.81 µM): 1.11; relative viability (NCI-H1703; first compound 50 µM): 1.1; relative viability (NCI-H1703; first compound 158.11 µM): 0.452; relative viability (NCI-H1703; first compound 500 µM): 0.274

Which relative viability (A549; first compound 0.08 µM) does the source give for `Cc1cnc(-c2cnc(NCCNc3ccc(C#N)cn3)nc2-c2ccc(Cl)cc2Cl)[nH]1` + CS(=O)(=O)CCNCc1ccc(-c2ccc3ncnc(Nc4ccc(OCc5cccc(F)c5)c(Cl)c4)c3c2)o1 [Lapatinib] (partner 2 µM) here?
Its relative viability is 0.96.

What about the relative viability (A549; first compound 0.253 µM) of the same compound?
The relative viability was 0.942.

What about the relative viability (A549; first compound 0.8 µM) of the same compound?
The relative viability was 1.16.

And the relative viability (A549; first compound 2.53 µM)?
Its relative viability is 1.14.

What about the relative viability (Calu-6; first compound 0.08 µM) of the same compound?
The relative viability was 1.14.

What about the relative viability (Calu-6; first compound 0.253 µM) of the same compound?
The relative viability was 0.991.

And the relative viability (Calu-6; first compound 0.8 µM)?
Its relative viability is 1.

What about the relative viability (Calu-6; first compound 2.53 µM) of the same compound?
The relative viability was 1.03.

What about the relative viability (EBC-1; first compound 0.08 µM) of the same compound?
Its relative viability is 0.253.

And the relative viability (EBC-1; first compound 0.253 µM)?
Its relative viability is 0.201.

And the relative viability (EBC-1; first compound 0.8 µM)?
The relative viability was 0.215.

What about the relative viability (EBC-1; first compound 2.53 µM) of the same compound?
The relative viability was 0.248.

What about the relative viability (IA-LM; first compound 0.08 µM) of the same compound?
Its relative viability is 0.985.

What about the relative viability (IA-LM; first compound 0.253 µM) of the same compound?
Its relative viability is 0.864.

What about the relative viability (IA-LM; first compound 0.8 µM) of the same compound?
The relative viability was 0.679.

And the relative viability (IA-LM; first compound 2.53 µM)?
Its relative viability is 0.685.

And the relative viability (NCI-H1299; first compound 0.08 µM)?
Its relative viability is 0.954.

What about the relative viability (NCI-H1299; first compound 0.253 µM) of the same compound?
The relative viability was 0.983.

And the relative viability (NCI-H1299; first compound 0.8 µM)?
The relative viability was 0.948.

What about the relative viability (NCI-H1299; first compound 2.53 µM) of the same compound?
The relative viability was 0.862.

And the relative viability (NCI-H1563; first compound 0.08 µM)?
Its relative viability is 1.06.

And the relative viability (NCI-H1563; first compound 0.253 µM)?
Its relative viability is 0.997.

What about the relative viability (NCI-H1563; first compound 0.8 µM) of the same compound?
The relative viability was 0.963.

And the relative viability (NCI-H1563; first compound 2.53 µM)?
Its relative viability is 1.01.

And the relative viability (NCI-H1703; first compound 0.08 µM)?
Its relative viability is 1.12.

What about the relative viability (NCI-H1703; first compound 0.253 µM) of the same compound?
The relative viability was 1.02.

What about the relative viability (NCI-H1703; first compound 0.8 µM) of the same compound?
Its relative viability is 1.2.

And the relative viability (NCI-H1703; first compound 2.53 µM)?
The relative viability was 1.28.

Which relative viability (A549; first compound 0.08 µM) does the source give for `Cc1cnc(-c2cnc(NCCNc3ccc(C#N)cn3)nc2-c2ccc(Cl)cc2Cl)[nH]1` + Cc1nc(NC(=O)N2CCC[C@H]2C(N)=O)sc1-c1ccnc(C(C)(C)C(F)(F)F)c1 [Alpelisib] (partner 2 µM) here?
Its relative viability is 0.853.

What about the relative viability (A549; first compound 0.253 µM) of the same compound?
Its relative viability is 0.753.

And the relative viability (A549; first compound 0.8 µM)?
The relative viability was 0.818.

And the relative viability (A549; first compound 2.53 µM)?
Its relative viability is 0.94.

What about the relative viability (Calu-6; first compound 0.08 µM) of the same compound?
Its relative viability is 0.946.

And the relative viability (Calu-6; first compound 0.253 µM)?
Its relative viability is 0.924.

What about the relative viability (Calu-6; first compound 0.8 µM) of the same compound?
Its relative viability is 0.934.

And the relative viability (Calu-6; first compound 2.53 µM)?
Its relative viability is 0.822.

What about the relative viability (EBC-1; first compound 0.08 µM) of the same compound?
The relative viability was 0.796.

What about the relative viability (EBC-1; first compound 0.253 µM) of the same compound?
Its relative viability is 0.782.

What about the relative viability (EBC-1; first compound 0.8 µM) of the same compound?
The relative viability was 0.78.

What about the relative viability (EBC-1; first compound 2.53 µM) of the same compound?
Its relative viability is 0.812.

What about the relative viability (IA-LM; first compound 0.08 µM) of the same compound?
The relative viability was 0.837.

And the relative viability (IA-LM; first compound 0.253 µM)?
Its relative viability is 0.77.

What about the relative viability (IA-LM; first compound 0.8 µM) of the same compound?
The relative viability was 0.86.

What about the relative viability (IA-LM; first compound 2.53 µM) of the same compound?
The relative viability was 0.826.

What about the relative viability (NCI-H1299; first compound 0.08 µM) of the same compound?
The relative viability was 1.01.

And the relative viability (NCI-H1299; first compound 0.253 µM)?
The relative viability was 0.992.

And the relative viability (NCI-H1299; first compound 0.8 µM)?
The relative viability was 1.1.

And the relative viability (NCI-H1299; first compound 2.53 µM)?
Its relative viability is 0.996.

What about the relative viability (NCI-H1563; first compound 0.08 µM) of the same compound?
Its relative viability is 1.02.

And the relative viability (NCI-H1563; first compound 0.253 µM)?
Its relative viability is 0.9.

And the relative viability (NCI-H1563; first compound 0.8 µM)?
The relative viability was 0.946.

And the relative viability (NCI-H1563; first compound 2.53 µM)?
Its relative viability is 0.913.

What about the relative viability (NCI-H1703; first compound 0.08 µM) of the same compound?
Its relative viability is 0.329.

What about the relative viability (NCI-H1703; first compound 0.253 µM) of the same compound?
The relative viability was 0.312.

And the relative viability (NCI-H1703; first compound 0.8 µM)?
The relative viability was 0.37.

What about the relative viability (NCI-H1703; first compound 2.53 µM) of the same compound?
The relative viability was 0.535.
